The numbers were not newly measured in patent publication US20260218090A1, “A LOW-TEMPERATURE, CAUSTIC DISHWARE […]” (priority 2023, published 2026), which cites them from elsewhere.

Like-named read-outs stand apart in the source and are kept apart here.

Data set [1] deals with C. albicans. The settings on record: NaOH 0.5 M (20,000 ppm); 4 or 22 °C; detection limit less than 3 organisms/mL; cited from earlier work.
Data set [2] has as its system P. aeruginosa. The conditions noted are these: NaOH 0.5 M (20,000 ppm); 22 °C; detection limit less than 3 organisms/mL; cited from earlier work.
Data set [3] concerns S. aureus. The conditions noted are these: NaOH 0.1 M (4,000 ppm); 4 or 22 °C; detection limit less than 3 organisms/mL; cited from earlier work.
In data set [4] the test system is B. subtilis spores. The settings on record: NaOH 1.0 M (40,000 ppm), cited from earlier work.
Data set [5] relates to E. coli. The conditions noted are these: NaOH 0.01 M (400 ppm); 4 or 22 °C; detection limit less than 3 organisms/mL; cited from earlier work.
In data set [6] the test system is A. niger. The conditions noted are these: NaOH 0.5 M (20,000 ppm); 4 or 22 °C; detection limit less than 3 organisms/mL; cited from earlier work.

Take `[Na+].[OH-]` [NaOH, sodium hydroxide]: the “Time for reduction of the organism below the detection limit” value was 1 h in data set [1]; 1 h in data set [2]; 1 h in data set [3]; 8 days in data set [4] (4 °C, detection limit less than 100 organisms/mL); 2 days in data set [4] (22 °C, detection limit 10 organisms/mL); 2 h in data set [5]. Besides, the “Time for reduction of the organism below the detection limit” value in data set [6] is 1 h.
